Like-named read-outs stand apart in the source and are kept apart here.
Assay: Pharmacokinetic and brain penetration study, intravenous and oral administration in rats
Format: in vivo
Conditions: rat; for concentration at 8 h: read-out: Clast; for Vd: read-out: Vss
Procedure: Methods and Procedure: The study was conducted in agreement with procedures to assure data integrity and GLP principles. Three experimental groups, as outlined below, were included in the study:
Group 1: Exemplary compound 522A was administered via the IV route to three rats at a target dose level of 0.5 mg/kg. Blood and brain samples were collected at 2h after IV administration.
Group 2: Exemplary compound 522A was administered via the IV route to three rats (brain penetration group) at a target dose level of 0.5 mg/kg. Blood and brain samples were collected at 2h after IV administration.
Group 3: Exemplary compound 522A was orally administered to three rats at a target dose level of 1 mg/kg. Blood samples were collected up to 24h after oral administration.
All test formulations were prepared on the day of administration prior to dosing, stored at room temperature, and used as soon as possible. Formulations were prepared and administered by volume for both IV and oral dosing. Actual body weights were determined on the day of dose administration, and the dose volumes were adjusted to the weight of the animal at the time of dose administration.
Blood was collected into K3 EDTA tubes at each of the following time points post-administration: • Group 1 (ITS): 0.083, 0.33, 1, 2, 4, 6, 8, and 24 hours after dosing • Group 2 (ITS): 2 hours after dosing for terminal brain analysis • Group 3 (Oral): 0.250, 0.5, 1, 2, 4, 6, 8, and 24 hours after dosing
All blood samples were thoroughly but gently mixed following collection and then placed on wet ice. Within 0.5 h of collection, blood was centrifuged (3000 g for 10 minutes at approximately 4° C.). Within 0.5 hours, 20 μL of each plasma sample was transferred into micronic tubes containing 80 μL of 0.1N Hepes buffer (pH 7.0-7.5). Residual plasma was transferred in micronic tubes as a second aliquot.
Brain specimens were diluted with 4 volumes of 0. IN Hepes buffer and homogenized using the Precellys system. Blood and brain samples were assayed using an optimized method based on protein precipitation with acetonitrile followed by HPLC/MS-MS analysis. Given the unknown stability of analytes in blood and brain, Calibration standards (CS) and Quality control samples (QC) were prepared in blood and brain samples on the day of dosing and stored together with study samples. It is assumed this procedure accounted for any possible analyte degradation.
Study samples, CS, QC, and blanks were spiked with an internal standard (IS), to improve the precision of the assay. Study samples were analyzed together with CS, QC and blank samples (including double blanks). From the calibration curve, the linear range of the analytical method was determined and the lower/upper limits of quantitation were specified.
The results of blood and brain specimens were subjected to non-compartmental pharmacokinetic analysis using Phoenix WinNonlin 6.3, with the following parameters reported: Calculated concentration of test items in the corresponding formulation (expressed as mg/mL), dose levels (expressed as mg/kg) for each compound, actual collection times (expressed as hh: mM), blood concentrations (expressed as ng/ml) for each compound, brain concentrations (expressed as ng/g) for each compound, PK parameters (iv: Cmax, AUC, CLp, Vss, t1/2, if applicable; oral (po): Cmax, tmax, AUC, F %, Fa %, Eh, AUC BB ratio, if applicable) for each compound, and abnormal clinical signs and relevant findings, if any.

[1] = plasma, iv, 0.5 mg/kg, 0.5 mg/kg (Table 8)
[2] = plasma, iv, 0.5 mg/kg, 0.5 mg/kg (Table 9)
[3] = plasma, iv, 0.5 mg/kg, IV, 0.5 mg/kg (Table 8)
[4] = plasma, iv, 0.5 mg/kg, IV, 0.5 mg/kg (Table 9)

Clc1ccc(C23CNC(CO2)C3)cc1Cl (stereo not shown) [522A, 1-(3,4-dichlorophenyl)-2-oxa-5-azabicyclo[2.2.1]heptane]
Kp uu at 2 h (brain and blood, 0.5 mg/kg, two hours after IV administration, read-out: concentration ratio of unbound drug in brain to blood (kp, uu)): 0.77
Kp at 2 h (brain and plasma, 0.5 mg/kg, two hours after IV administration, read-out: mean brain-to-plasma ratio): 4.96
Tmax (plasma, IV, 0.5 mg/kg (Table 8)): 0.08 h
Tmax (plasma, oral (PO), 1 mg/kg): 2 h
bioavailability (plasma, oral (PO), 1 mg/kg versus IV): 30.8%
Tlast (IV, 0.5 mg/kg (Table 8)): 8 h
Tlast (IV, 0.5 mg/kg (Table 9)): 8 h
concentration at 2 h (brain, iv, 0.5 mg/kg, two hours after IV administration, 0.5 mg/kg, read-out: free concentration in the brain): 42.8 nM
concentration at 2 h (brain, iv, 0.5 mg/kg, two hours after IV administration, 0.5 mg/kg, read-out: total concentration in the brain): 1930 nM
Tlast (oral (PO), 1 mg/kg): 8 h
AUC(0-inf) [1]: 1480 ng·h/mL
AUC(0-t) [1]: 1460 ng·h/mL
Cmax [1]: 1890 ng/mL
clearance [1]: 5.71 mL/min/kg
half-life [1]: 1.36 h
AUC(0-inf) [2]: 799 ng·h/mL
AUC(0-t) [2]: 772 ng·h/mL
Cmax [2]: 878 ng/mL
clearance [2]: 11.6 mL/min/kg
half-life [2]: 1.65 h
concentration at 8 h [3]: 9.32 ng/mL
Vd [3]: 0.411 L/kg
concentration at 8 h [4]: 10.6 ng/mL
Vd [4]: 1.48 L/kg
concentration at 2 h (plasma, iv, 0.5 mg/kg, two hours after IV administration, 0.5 mg/kg, read-out: free concentration in plasma): 71.3 nM
concentration at 2 h (plasma, iv, 0.5 mg/kg, two hours after IV administration, 0.5 mg/kg, read-out: total plasma concentration): 594 nM
AUC(0-inf) (plasma, po, 1 mg/kg, oral (PO)): 509 ng·h/mL
AUC(0-t) (plasma, po, 1 mg/kg, oral (PO)): 442 ng·h/mL
Cmax (plasma, po, 1 mg/kg, oral (PO)): 102 ng/mL
half-life (plasma, po, 1 mg/kg, oral (PO)): 2.42 h
concentration at 8 h (plasma, po, 1 mg/kg, oral (PO), 1 mg/kg): 19.3 ng/mL
